Consider seven molecules from PMC5354814, “In silico and in vitro drug screening identifies new therapeutic approaches for Ewing sarcoma” (Oncotarget, 2016).

The conditions of data set [1]: 24-month study in rats; auranofin 1.0 or 2.5 mg/kg/day orally; gold sodium thiomalate 2 or 6 mg/kg twice weekly; cited from earlier work.
Data set [2] has as its system A673. Nature of the data set: Hits validation, dose-response cell proliferation (CellTiter-Glo). The data set is classed as cell-based. As to conditions: Homo sapiens, A673; 12-point dose-response 50 μmol/L to 1 nmol/L, mean ± SD. The procedure: (§1) For hits validation and combination study, cells were harvested and aliquoted into 384-well plates at concentrations of 750–1,500 cells per well in a total of 20 μl/well using a Matrix Wellmate (Thermo Scientific). Five μl of culture media containing either vehicles or drug were added to each well the next day (drug concentrations range from 1 nmol/L to 50 μmol/L). For combination study, selected drugs were archived in robotically accessible plates, to which media was added in preparation for addition to master plates by a Nimbus 96 liquid-dispensing workstation (Hamilton). Liquid transfers to dilution and assay plates were handled using the same workstation. Each 384-well master plate contained four 9 by 9 dose-matrix blocks, with eight serial two-fold dilutions (concentrations range from 7.8 nmol/L to 1 μmol/L). Additional wells were reserved for untreated, and vehicle-treated control wells. Cell proliferation was evaluated using Cell-Titer Glo® reagents (Promega). IC50 values were determined for each drug using SigmaPlot (Systat Software). The combination index values were calculated using SigmaPlot (Systat Software) and CompuSyn.

Data set [3] has as its system CHLA-258. Described as above. The data set is classed as cell-based. Particulars: 12-point dose-response 50 μmol/L to 1 nmol/L, mean ± SD. The procedure: as §1
The subject of data set [4] is COG-E-352. Described as above. The data set is classed as cell-based. Particulars: 12-point dose-response 50 μmol/L to 1 nmol/L, mean ± SD. The procedure:
as §1

In data set [5] the test system is Hs 822.T. The description is as above. The data set is classed as cell-based. As to conditions: control cell line, 12-point dose-response, mean ± SD. The procedure:
as §1

Data set [6] has as its system Hs 863.T. The data set is described as above. As to conditions: control cell line, 12-point dose-response, mean ± SD. The data set is classed as cell-based. The procedure: as §1
Data set [7] concerns RD-ES. Described as above. As to conditions: RD-ES; 12-point dose-response 50 μmol/L to 1 nmol/L, mean ± SD. The data set is classed as cell-based. The procedure: as §1
The subject of data set [8] is SK-ES-1. Described as above. The data set is classed as cell-based. As to conditions: Homo sapiens, SK-ES1; 12-point dose-response 50 μmol/L to 1 nmol/L, mean ± SD. The procedure: as §1
For data set [9], the system named is TC-71. The data set is described as above. The data set is classed as cell-based. Particulars: TC-71; 12-point dose-response 50 μmol/L to 1 nmol/L, mean ± SD. The procedure:
as §1

The subject of data set [10] is Hs 919.T. The data set is described as above. The data set is classed as cell-based. Particulars: control cell line, 12-point dose-response, mean ± SD. The procedure:
These drugs were chosen based on their known mechanisms and safety profiles. We also tested the synergy between these drug hits (Supplementary Figures S6–S11). […] We evaluated the anti-proliferation effect in combination treatments using the EWS and control cell lines.
as §1

Data set [11] concerns cancer cells with EWS-FLI1 mutations. Details: method as in GDSC database, cancerrxgene.org. As to conditions: ref GDSC database, cancerrxgene.org; cited from earlier work.
The subject of data set [12] is EWS cell lines. Put plainly: Combination study (dose matrix, CellTiter-Glo, combination index). The data set is classed as cell-based. The procedure: Next, the predicted and library screened drugs were extensively validated. The in vitro activities of each drug hit were evaluated in an expanded panel of EWS cell lines (either the EWS/FLI1 or the EWS/ERG fusion) (Table 1) and confirmed employing 12-point dose-response curves ranging from 50 μmol/L to 1 nmol/L, with triplicate sampling (Table 3). As mentioned above, one of the most notable drug hits discovered through both the in silico and in vitro drug screening approaches was auranofin. Based on this finding, we subsequently screened auranofin against six other marketed or investigational anticancer drug hits (carfilzomib, elesclomol, bortezomib, geldanamycin, AUY922, and ganetespib, Supplementary Figures S1–S5 and Figure 2). These drugs were chosen based on their known mechanisms and safety profiles. […] We evaluated the anti-proliferation effect in combination treatments using the EWS and control cell lines. […]
For hits validation and combination study, cells were harvested and aliquoted into 384-well plates at concentrations of 750–1,500 cells per well in a total of 20 μl/well using a Matrix Wellmate (Thermo Scientific). […] Cell proliferation was evaluated using Cell-Titer Glo® reagents (Promega). IC50 values were determined for each drug using SigmaPlot (Systat Software). The combination index values were calculated using SigmaPlot (Systat Software) and CompuSyn.

In data set [13] the test system is A673 cells. Put plainly: In vivo xenograft mouse model. Particulars: auranofin 12 mg/kg i.p. 5 days per week, ganetespib 150 mg/kg i.v. once weekly; p < 0.05. The procedure: To assess the antitumor activity of auranofin (using an alternative delivery approach), ganetespib and the combination treatments in vivo, we generated a xenograft nude mouse model by injecting A673 cells intramuscularly proximal to the tibia. Based on the dose tolerance and pharmacokinetic studies described above, we administered auranofin at a tolerable daily i.p. dose that achieved adequate systemic drug exposure. Auranofin was administered with a dose of 12 mg/kg through an i.p. injection once a day for 5 days per week, and ganetespib was administered with a dose of 150 mg/kg through an i.v. injection once weekly. Mice that grew palpable tumors were randomized into four groups: vehicle, auranofin-only, ganetespib-only, and the combination.
The guidelines adopted by the Institutional Animal Care and Use Committee of the University of Kansas Medical Center (KUMC-IACUC) were followed in all performed procedures. All experimental protocols were approved by KUMC-IACUC. Homozygous athymic nude (Foxn1nu/Foxn1nu) female mice at the age of 4-weeks were purchased from Jackson Laboratories. After one week, one million A673 cells in PBS (pH = 7.3) were injected into mice. The cells were injected intramuscularly proximal to the tibia and treatment started after 15 days of inoculation. Mice developing palpable tumors were divided into 4 arms and treated for up to 18 days: vehicle (20% Cremophor RH40 and 80% D5W iv and 0.5% HPMC K4M ip), auranofin (12 mg/kg i.p. injection 5 days per week), ganetespib (150 mg/kg i.v. injection once weekly), as well as auranofin and ganetespib combined. Mice were evaluated for overall health and weighed every week. When tumor size impeded mobility, mice were sacrificed and necropsies were performed. Tumors were then dissected, measured and processed for analysis. The liver, kidneys, and spleen were also snap frozen in liquid nitrogen or fixed in 10% neutral buffered formalin and paraffin embedded for toxicity studies. Tissues were then subjected to hematoxylin and eosin (H&E) staining and immunohistochemical staining. […]

A value given as a limit tells only on which side of the number the result lay.

Take `O=C([O-])CC([S-])C(=O)[O-].[Au+].[Na+].[Na+]` (centres unmarked) [gold sodium thiomalate]: the “frequency of renal tubular cell karyomegaly and cytomegaly and renal adenoma” value in data set [1] is listed as “significant incr ease”.

In the case of `CN(NC(=O)CC(=O)NN(C)C(=S)c1ccccc1)C(=S)c1ccccc1` [Elesclomol], the IC50 is 6 ± 6 nM in data set [2]; under 3 nM in [3]; 7 ± 2 nM in data set [4]; over 20000 nM in [5]; over 20000 nM in [6]; 50 ± 60 nM in data set [7]. Also, the IC50 is 10 ± 1 nM in data set [8], under 3 nM in data set [9] and over 20000 nM in data set [10]. In addition, the “sensitivity of cancer cells with EWS-FLI1 mutations compared with wild-type” value in data set [11] is “preferentially sensitive”.

Consider `CC(C)c1cc(-c2n[nH]c(=O)n2-c2ccc3c(ccn3C)c2)c(O)cc1O` [ganetespib], for which the IC50 in data set [2] is 40 ± 10 nM; in [3] it was under 3 nM; in [4] it was under 3 nM; in data set [5] it was over 20000 nM; in [6] it was over 20000 nM; in [7] it was 20 ± 20 nM. Also, the figures for the IC50 in data set [8], in data set [9] and in data set [10] were 10 ± 1 nM, under 3 nM and over 20000 nM, respectively. In addition, in data set [12], the “synergy in combination with auranofin” value is listed as “highly synergistic”. For the same molecule, in data set [13], the “survival rate versus control group” value is “significantly increased the survival rate”.

As for `CC(C)C[C@H](NC(=O)[C@H](Cc1ccccc1)NC(=O)c1cnccn1)B(O)O` [Bortezomib], the IC50 in data set [2] worked out at 10 ± 3 nM; in data set [3] it was 7 nM; in data set [4], 5 nM; in [5] it was 450 ± 80 nM; in data set [6] it was 180 ± 30 nM; in [7], 10 ± 1 nM. Besides, the results for the IC50 in [8], in [9] and in data set [10] were 20 ± 2 nM, 5 ± 8.1 nM and 170 ± 3 nM, respectively.

As for `CC(=O)[C@H]1CC[C@H]2[C@@H]3CCC4=CC(=O)CC[C@]4(C)[C@H]3CC[C@]12C` [Progesterone], the IC50 in data set [2] was over 50000 nM; in data set [3] it was 11500 ± 5310 nM; in data set [4] it was 24900 ± 5850 nM; in [5] it was over 50000 nM; in data set [6] it was over 50000 nM; in data set [7], over 50000 nM. Besides, the IC50 in data set [8], in data set [9] and in data set [10] was over 50000 nM each time.

Turning to `CC1=C(/C=C/C(C)=C/C=C/C(C)=C/C(=O)O)C(C)(C)CCC1` [Tretinoin], the half-maximal inhibitory concentration (IC50) is over 50000 nM in [2]; 4950 ± 3820 nM in [3]; 35500 ± 6280 nM in [4]; over 50000 nM in data set [5]; over 50000 nM in data set [6]; over 50000 nM in data set [7]. In addition, the IC50 in data set [8], in data set [9] and in data set [10] was over 50000 nM in each case.

With `CCNC(=O)c1noc(-c2cc(C(C)C)c(O)cc2O)c1-c1ccc(CN2CCOCC2)cc1` [AUY922], the IC50 is 20 ± 2 nM in data set [2]; under 3 nM in data set [3]; under 3 nM in [4]; over 20000 nM in [5]; over 20000 nM in data set [6]; 9 ± 1 nM in [7]. For the same molecule, the half-maximal inhibitory concentration (IC50) was 30 ± 2 nM in [8], under 3 nM in data set [9] and over 20000 nM in data set [10]. The “synergy in combination with auranofin” value in data set [12] is on record as “highly synergistic”.
